Measured values as given in ChEMBL document CHEMBL5727231, “Farnesoid X receptor agonists and uses thereof” (2019).

Target: T1, Bile acid receptor (Homo sapiens, UniProt Q96RI1)
T1 sequence (Q96RI1 whole entry): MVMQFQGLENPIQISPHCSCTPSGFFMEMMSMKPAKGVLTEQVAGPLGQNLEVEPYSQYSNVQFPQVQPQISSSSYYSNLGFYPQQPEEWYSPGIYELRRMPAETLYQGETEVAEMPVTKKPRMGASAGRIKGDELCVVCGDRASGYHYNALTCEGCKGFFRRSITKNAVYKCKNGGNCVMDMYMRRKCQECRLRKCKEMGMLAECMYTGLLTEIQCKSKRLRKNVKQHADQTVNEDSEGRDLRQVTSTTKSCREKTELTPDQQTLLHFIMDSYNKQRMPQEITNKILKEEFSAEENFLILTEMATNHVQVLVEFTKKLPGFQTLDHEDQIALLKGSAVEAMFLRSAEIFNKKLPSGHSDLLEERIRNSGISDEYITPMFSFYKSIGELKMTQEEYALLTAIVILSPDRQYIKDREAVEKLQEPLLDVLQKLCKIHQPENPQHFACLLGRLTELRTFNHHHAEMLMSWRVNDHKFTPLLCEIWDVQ
Experiment: In Vitro FXR Assay (TK): SeedingCV-1 cells were seeded at a density of 2,000,000 cells in a T175 flask with DMEM+10% charcoal double-stripped FBS and incubated at 37° C. in 5% CO2 for 18 h (O/N).TransfectionAfter 18 h of incubation, the medium in the T175 flask was changed with fresh DMEM+10% charcoal super-stripped serum. In a polypropylene tube, 2500 μL OptiMEM (Life Technologies, Cat #31985-062) was combined with expression plasmids for hFXR, hRXR, TK-ECRE-luc and pCMX-YFP. The tube was then briefly vortexed and incubated at room temperature for 5 minutes. Transfection reagent (X-tremeGENE HP from Roche, Cat #06 366 236 001) was added to the OptiMEM/plasmid mixture vortexed and incubated at room temperature for 20 minutes. Following incubation, the transfection reagent/DNA mixture complex was added to cells in the T175 flask and the cells were incubated at 37° C. in 5% CO2 for 18 h (O/N).Test CompoundsCompounds were serially diluted in DMSO and added to transfected CV-1 cells. The cells were then incubated for 18 hrs. The next day cells were lysed and examined for luminescence.

EC50, < 1000 nM:
COC(=O)c1ccc2c(N(C[C@H]3CC[C@H](c4cccc(OC)c4)CC3)C(=O)CC(C)(C)C)nccc2c1
COC(=O)c1ccc2c(N(C[C@H]3CC[C@H](c4ccc(C)cc4)CC3)C(=O)CC(C)(C)C)nccc2c1
COC(=O)c1ccc2c(N(C[C@H]3CC[C@H](c4ccc(OC)c(C)c4)CC3)C(=O)C3CCCCC3)nccc2c1
